In patent US4416884A, “Piperazinylbenzoheterocyclic compounds” (Otsuka Pharmaceutical Co., Ltd., priority 1978, dated 1983):
Like-named read-outs stand apart in the source and are kept apart here.

Legend:
[1] = system: Yersinia enterocolitica 0-5; experiment: antimicrobial activity, serial dilution method on agar plate; format: cell-based
[2] = system: Test Organism 1 (Escherichia Coli NIHJ); experiment: influence of the addition of horse serum on the MIC; format: cell-based
[3] = inactivation ratio by human serum protein; settings: 3.1 mcg/ml, 37° C.
Method: (§2) A 1/15 mol/l phosphate buffer was added to powder of Moni-Trol 1 (dehydrated preparation of human serum, a product of Midori Juji Co., Ltd.) to prepare a composition having the same serum protein concentration as natural human serum and this preparation was labeled "100% human serum", an aliquot of the "100% human serum" preparation was mixed with the same volume of the above buffer to prepare "50% human serum" and another aliquot was mixed with 4 times as much as its volume of the buffer to prepare "20% human serum".

[4] = system: Test Organism 16 (Pseudomonas maltophilia IFO 12692); experiment: influence of the addition of horse serum on the MIC; format: cell-based; settings: Stenotrophomonas maltophilia
[5] = system: Bacillus subtilis PCI 219; experiment: antimicrobial activity, serial dilution method on agar plate; format: cell-based
In short: (§1)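 Reported figure is the lowest compound level (mcg/ml) inhibiting growth on Heart Infusion agar in a serial plate dilution. Suspensions of 1×10^8 and 1×10^6 cells/ml served as inocula.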

[6] = system: Streptococcus pneumoniae Type II; experiment: as above; format: cell-based
In short: as §1

[7] = system: Streptococcus pneumoniae Type III; experiment: as above; format: cell-based
In short: as §1

[8] = system: Proteus vulgaris IID OX-19; experiment: as above; format: cell-based; settings: read-out: Minimum Inhibitory Concentration
In short: as §1

[9] = system: Klebsiella pneumoniae ST-101; experiment: as above; format: cell-based
In short: as §1

[10] = system: Enterobacter cloacae; experiment: as above; format: cell-based
In short: as §1

[11] = system: Streptococcus pyogenes IID Cook; experiment: as above; format: cell-based
In short: as §1

[12] = system: Pseudomonas maltophilia IFO 12692; experiment: as above; format: cell-based; settings: Stenotrophomonas maltophilia, IFO12692, read-out: Minimum Inhibitory Concentration
In short: as §1

[13] = system: Streptococcus pyogenes IID S-23; experiment: as above; format: cell-based
In short: as §1

[14] = system: Corinebacterium diphteriae; experiment: as above; format: cell-based
In short: as §1

[15] = system: Pseudomonas aeruginosa NCTC 10490; experiment: as above; format: cell-based
In short: as §1

[16] = system: Proteus rettgeri NIH 96; experiment: as above; format: cell-based; settings: Providencia rettgeri
In short: as §1

[17] = system: Enterobacter aerogenes IFO 12979; experiment: as above; format: cell-based; settings: Klebsiella aerogenes
In short: as §1

[18] = system: Escherichia Coli NIHJ JC-2 (IFO 12734); experiment: as above; format: cell-based; settings: Escherichia coli, read-out: Minimum Inhibitory Concentration
In short: as §1

[19] = system: Test Organism 17 (Pseudomonas putida IFO 13696); experiment: influence of the addition of horse serum on the MIC; format: cell-based
[20] = in vitro; settings: human
Method: as §2

[21] = Yersinia enterocolitica, 05, read-out: Minimum Inhibitory Concentration, inoculum 1 × 10^6 cells/ml
[22] = Yersinia enterocolitica, 05, read-out: Minimum Inhibitory Concentration, inoculum 1 × 10^8 cells/ml
[23] = PCI219, read-out: Minimum Inhibitory Concentration, inoculum 1 × 10^6 cells/ml
[24] = PCI219, read-out: Minimum Inhibitory Concentration, inoculum 1 × 10^8 cells/ml
[25] = read-out: Minimum Inhibitory Concentration, inoculum 1 × 10^6 cells/ml
[26] = read-out: Minimum Inhibitory Concentration, inoculum 1 × 10^8 cells/ml
[27] = IIDOX19, inoculum 1 × 10^6 cells/ml
[28] = IIDOX19, inoculum 1 × 10^8 cells/ml
[29] = ST101, read-out: Minimum Inhibitory Concentration, inoculum 1 × 10^6 cells/ml
[30] = ST101, read-out: Minimum Inhibitory Concentration, inoculum 1 × 10^8 cells/ml
[31] = IIDS23, read-out: Minimum Inhibitory Concentration, inoculum 1 × 10^6 cells/ml
[32] = IIDS23, read-out: Minimum Inhibitory Concentration, inoculum 1 × 10^8 cells/ml
[33] = NCTC10490, read-out: Minimum Inhibitory Concentration, inoculum 1 × 10^6 cells/ml
[34] = NCTC10490, read-out: Minimum Inhibitory Concentration, inoculum 1 × 10^8 cells/ml
[35] = NIH96, read-out: Minimum Inhibitory Concentration, inoculum 1 × 10^6 cells/ml
[36] = NIH96, read-out: Minimum Inhibitory Concentration, inoculum 1 × 10^8 cells/ml
[37] = IFO12979, read-out: Minimum Inhibitory Concentration, inoculum 1 × 10^6 cells/ml
[38] = IFO12979, read-out: Minimum Inhibitory Concentration, inoculum 1 × 10^8 cells/ml

CC1CCc2c(N3CCNCC3)ccc3c(=O)c(C(=O)O)cn1c23 (centres unmarked) [A]
1: fraction unbound at 2 h ([3]; 20% human serum) | fraction unbound at 2 h ([3]; 100% human serum)
6.3 µg/mL: MIC ([2]; read-out: Minimum Inhibitory Concentration, horse serum 0%, inoculum 10^6) | MIC ([2]; read-out: Minimum Inhibitory Concentration, horse serum 0%, inoculum 10^8) | MIC ([2]; read-out: Minimum Inhibitory Concentration, horse serum 10%, inoculum 10^8) | MIC [6, 25] | MIC [15, 34]
0.918: fraction unbound at 2 h ([3]; 10% human serum)
3.1 µg/mL: MIC ([2]; read-out: Minimum Inhibitory Concentration, horse serum 10%, inoculum 10^6) | MIC ([2]; read-out: Minimum Inhibitory Concentration, horse serum 20%, inoculum 10^6) | MIC ([2]; read-out: Minimum Inhibitory Concentration, horse serum 20%, inoculum 10^8) | MIC ([2]; read-out: Minimum Inhibitory Concentration, horse serum 40%, inoculum 10^6) | MIC ([2]; read-out: Minimum Inhibitory Concentration, horse serum 40%, inoculum 10^8) | MIC ([4]; IFO12692, read-out: Minimum Inhibitory Concentration, horse serum 0%, inoculum 10^8) | MIC [15, 33]
25 µg/mL: MIC [6, 26] | MIC [7, 26] | MIC [11, 26] | MIC [13, 32]
1.6 µg/mL: MIC ([4]; IFO12692, read-out: Minimum Inhibitory Concentration, horse serum 0%, inoculum 10^6) | MIC ([4]; IFO12692, read-out: Minimum Inhibitory Concentration, horse serum 10%, inoculum 10^6) | MIC ([4]; IFO12692, read-out: Minimum Inhibitory Concentration, horse serum 10%, inoculum 10^8) | MIC [8, 28] | MIC [14, 25] | MIC [14, 26] | MIC [18]
0.8 µg/mL: MIC [1, 21] | MIC [1, 22] | MIC ([4]; IFO12692, read-out: Minimum Inhibitory Concentration, horse serum 20%, inoculum 10^6) | MIC ([4]; IFO12692, read-out: Minimum Inhibitory Concentration, horse serum 20%, inoculum 10^8) | MIC ([4]; IFO12692, read-out: Minimum Inhibitory Concentration, horse serum 40%, inoculum 10^8) | MIC [5, 23] | MIC [5, 24] | MIC [8, 27] | MIC [10, 25] | MIC [10, 26] | MIC [17, 37] | MIC [17, 38]
12.5 µg/mL: MIC [7, 25] | MIC [11, 25] | MIC [12] | MIC [13, 31]
0.2 µg/mL: MIC [9, 29] | MIC ([19]; IFO13696, read-out: Minimum Inhibitory Concentration, horse serum 0%, inoculum 10^6) | MIC ([19]; IFO13696, read-out: Minimum Inhibitory Concentration, horse serum 10%, inoculum 10^6) | MIC ([19]; IFO13696, read-out: Minimum Inhibitory Concentration, horse serum 10%, inoculum 10^8) | MIC ([19]; IFO13696, read-out: Minimum Inhibitory Concentration, horse serum 20%, inoculum 10^6) | MIC ([19]; IFO13696, read-out: Minimum Inhibitory Concentration, horse serum 20%, inoculum 10^8) | MIC ([19]; IFO13696, read-out: Minimum Inhibitory Concentration, horse serum 40%, inoculum 10^6) | MIC ([19]; IFO13696, read-out: Minimum Inhibitory Concentration, horse serum 40%, inoculum 10^8)
0.4 µg/mL: MIC ([4]; IFO12692, read-out: Minimum Inhibitory Concentration, horse serum 40%, inoculum 10^6) | MIC [9, 30] | MIC [16, 35] | MIC [16, 36] | MIC ([19]; IFO13696, read-out: Minimum Inhibitory Concentration, horse serum 0%, inoculum 10^8)

CCn1cc(C(=O)O)c(=O)c2ccc(C)nc21 [E]
0.608: fraction unbound at 2 h ([20]; 20% human serum)
0.376: fraction unbound at 2 h ([20]; 50% human serum)
0.587: fraction unbound at 2 h ([20]; 10% human serum, Inactivation Ratio)
1.6 µg/mL: MIC [1, 21] | MIC [9, 29] | MIC [9, 30] | MIC [16, 36]
> 100 µg/mL: MIC [6, 25] | MIC [6, 26] | MIC [7, 25] | MIC [7, 26] | MIC [11, 25] | MIC [11, 26] | MIC [12] | MIC [13, 31] | MIC [13, 32] | MIC [14, 25] | MIC [14, 26] | MIC [15, 33] | MIC [15, 34]
0.528: fraction unbound at 2 h ([20]; 10% human serum)
0.8 µg/mL: MIC [16, 35]
3.1 µg/mL: MIC [1, 22] | MIC [5, 23] | MIC [8, 27] | MIC [8, 28] | MIC [10, 25] | MIC [10, 26] | MIC [17, 37] | MIC ([18]; inoculum 1 × 10^6 cells/ml) | MIC ([18]; inoculum 1 × 10^8 cells/ml)
0.24: fraction unbound at 2 h ([20]; 100% human serum)
6.3 µg/mL: MIC [5, 24] | MIC [17, 38]
0.387: fraction unbound at 2 h ([20]; 50% human serum, Inactivation Ratio) | fraction unbound at 2 h ([20]; 100% human serum, Inactivation Ratio)
0.565: fraction unbound at 2 h ([20]; 20% human serum, Inactivation Ratio)
